Reference: patent US7838529B2, “Xanthine derivates, their preparation and their use in pharmaceutical compositions” (Boehringer Ingelheim International GmbH, priority 2002, dated 2010)

Test system: not listed separately
Assay: Tolerability after oral administration to rats (behavior)
Assay type: in vivo
Details: 10 mg/kg

With `CC#CCn1c(N2CCC[C@@H](N)C2)nc2c1c(=O)n(CC(=O)c1ccccc1NC(=O)C1CC1)c(=O)n2C` [Example 1 (5), 1-(2-{2-[(cyclopropylcarbonyl)amino]phenyl}-2-oxoethyl)-3-methyl-7-(2-butyn-1-yl)-8-((R)-3-aminopiperidin-1-yl)xanthine] as the molecule, how does the “changes in the animals' behavior” value read?
Its value is “no changes in the animals' behavior could be detected”.

Biological target: T1, DPP-IV (Homo sapiens, UniProt P27487)
T1 construct: an extract of human colon carcinoma cell line Caco-2 is used as the DPP-IV source; endogenous in cells; host or cells: Caco-2 (human colon carcinoma), differentiated to induce DPP-IV expression
T1 sequence (P27487 whole entry): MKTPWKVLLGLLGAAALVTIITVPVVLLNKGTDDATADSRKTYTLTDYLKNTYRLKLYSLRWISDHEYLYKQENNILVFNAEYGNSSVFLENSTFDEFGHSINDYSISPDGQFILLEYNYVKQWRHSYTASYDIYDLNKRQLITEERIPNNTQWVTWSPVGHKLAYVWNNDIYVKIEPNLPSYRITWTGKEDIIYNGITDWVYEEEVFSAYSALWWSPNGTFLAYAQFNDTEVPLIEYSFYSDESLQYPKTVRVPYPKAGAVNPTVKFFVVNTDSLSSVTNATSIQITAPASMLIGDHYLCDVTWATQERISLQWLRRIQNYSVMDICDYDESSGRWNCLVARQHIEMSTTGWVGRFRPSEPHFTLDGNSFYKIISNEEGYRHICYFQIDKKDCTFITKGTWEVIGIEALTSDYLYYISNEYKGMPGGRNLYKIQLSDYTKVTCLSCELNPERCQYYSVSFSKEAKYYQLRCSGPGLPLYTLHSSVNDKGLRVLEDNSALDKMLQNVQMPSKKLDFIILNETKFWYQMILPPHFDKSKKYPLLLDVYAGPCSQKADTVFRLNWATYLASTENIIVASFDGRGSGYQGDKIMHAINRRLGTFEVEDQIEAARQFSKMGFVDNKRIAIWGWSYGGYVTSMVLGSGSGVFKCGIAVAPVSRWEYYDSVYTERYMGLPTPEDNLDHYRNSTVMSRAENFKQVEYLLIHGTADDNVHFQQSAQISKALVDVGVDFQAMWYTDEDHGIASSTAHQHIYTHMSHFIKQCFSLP
Assay: DPP-IV assay with Caco-2 cell extract as DPP-IV source
Assay type: biochemical
Details: extract of human colon carcinoma cell line Caco-2; AFC substrate 100 μM; 60 minutes at ambient temperature; read-out: DPP-IV inhibition IC50
Experimental: The differentiation of the cells in order to induce the DPP-IV expression was carried out as described by Reiher et al., “Increased Expression of Intestinal Cell Line Caco-2”, Proc. Natl. Acad. Sci. Vol. 90, pages 5757-5761 (1993). The cell extract was obtained from cells solubilized in a buffer (10 mM Tris HCl, 0.15 M NaCl, 0.04 t.i.u. aprotinin, 0.5% Nonidet P-40, pH 8.0) by centrifuging at 35,000 g for 30 minutes at 4° C. (to remove cell debris).
The DPP-IV assay was carried out as follows:
50 μL substrate solution (AFC; AFC is amido-4-trifluoromethylcoumarin), final concentration 100 μM, were placed in black microtitre plates. 20 μL of assay buffer (final concentrations 50 mM Tris HCl pH 7.8, 50 mM NaCl, 1% DMSO) was pipetted in. The reaction was started by adding 30 μL of solubilized Caco-2 protein (final concentration 0.14 μg of protein per well). The test substances to be investigated were typically added prediluted in 20 μL, and the volume of assay buffer was then reduced accordingly. The reaction was carried out at ambient temperature, incubating for 60 minutes. Then the fluorescence was measured in a Victor 1420 Multilabel Counter, the excitation wavelength being 405 nm and the emission wavelength being 535 nm. Blank readings (corresponding to 0% activity) were obtained in mixtures without any Caco-2 protein (volume replaced by assay buffer), control values (corresponding to 100% activity) were obtained in mixtures with no substance added. […]

For `CC(C)=CCn1c(N2CCCC(N)C2)nc2c1c(=O)n(CC(=O)c1ccccc1NC(=O)C1CC1)c(=O)n2C` (stereo not drawn) [1 (1), 1-(2-{2-[(cyclopropylcarbonyl)amino]phenyl}-2-oxoethyl)-3-methyl-7-(3-methyl-2-buten-1-yl)-8-(3-aminopiperidin-1-yl)xanthine], which IC50 is on record?
Its IC50 is 11 nM.

With `CC#CCn1c(N2CCCC(N)C2)nc2c1c(=O)n(CC(=O)c1ccccc1NC=O)c(=O)n2C` (stereo not drawn) [1 (2), 1-[2-(2-formylaminophenyl)-2-oxoethyl]-3-methyl-7-(2-butyn-1-yl)-8-(3-aminopiperidin-1-yl)xanthine] as the molecule, how does the IC50 read?
Its IC50 is 3 nM.

With `C/C=C/Cn1c(N2CCC[C@@H](N)C2)nc2c1c(=O)n(CC(=O)c1ccccc1NC(=O)C1CC1)c(=O)n2C` [1 (3), 1-(2-{2-[(cyclopropylcarbonyl)amino]phenyl}-2-oxoethyl)-3-methyl-7-((E)-2-buten-1-yl)-8-((R)-3-aminopiperidin-1-yl)xanthine] as the molecule, how does the IC50 read?
Its IC50 is 4 nM.

For `C/C=C/Cn1c(N2CCC[C@H](N)C2)nc2c1c(=O)n(CC(=O)c1ccccc1NC(=O)C1CC1)c(=O)n2C` [1 (4), 1-(2-{2-[(cyclopropylcarbonyl)amino]phenyl}-2-oxoethyl)-3-methyl-7-((E)-2-buten-1-yl)-8-((S)-3-aminopiperidin-1-yl)xanthine], which IC50 is on record?
The IC50 was 3 nM.

For `CC#CCn1c(N2CCC[C@H](N)C2)nc2c1c(=O)n(CC(=O)c1ccccc1NC(=O)C1CC1)c(=O)n2C` [1 (6), 1-(2-{2-[(cyclopropylcarbonyl)amino]phenyl}-2-oxoethyl)-3-methyl-7-(2-butyn-1-yl)-8-((S)-3-aminopiperidin-1-yl)xanthine], which IC50 is on record?
Its IC50 is 5 nM.

With `C/C=C/Cn1c(N2CCCC(N)C2)nc2c1c(=O)n(CC(=O)c1ccccc1NC(=O)c1ccccn1)c(=O)n2C` (stereo not drawn) [1 (7), 1-[2-(2-{[(pyridin-2-yl)carbonyl]amino}phenyl)-2-oxoethyl]-3-methyl-7-((E)-2-buten-1-yl)-8-(3-aminopiperidin-1-yl)xanthine] as the molecule, how does the IC50 read?
Its IC50 is 8 nM.

With `CC#CCn1c(N2CCC[C@@H](N)C2)nc2c1c(=O)n(CC(=O)c1ccccc1NC(=O)C1CC1)c(=O)n2C` [Example 1 (5), 1-(2-{2-[(cyclopropylcarbonyl)amino]phenyl}-2-oxoethyl)-3-methyl-7-(2-butyn-1-yl)-8-((R)-3-aminopiperidin-1-yl)xanthine] as the molecule, how does the IC50 read?
The IC50 was 3 nM.

Which IC50 does the source give for `CC(C)=CCn1c(N2CCCC(N)C2)nc2c1c(=O)n(CC(=O)c1ccccc1NC=O)c(=O)n2C` (stereo not drawn) [Example 1, 1-[2-(2-formylaminophenyl)-2-oxoethyl]-3-methyl-7-(3-methyl-2-buten-1-yl)-8-(3-aminopiperidin-1-yl)xanthine] here?
The IC50 was 5 nM.
